Laboratory results from patent publication US12668599B2, “Heterobifunctional compounds and methods of treating disease” (Halda Therapeutics OpCo, Inc., priority 2023, dated 2026).

Columns and labels:
[1] = system: T-Rex 293 cell line SC3 cells having increased expression of androgen receptor protein due to exposure to doxycycline; assay: Cellular growth inhibition, T-Rex 293 SC3 cells with doxycycline-induced androgen receptor (CellTiter-Glo 2.0, 72 hours); type: cell-based; details: for GI50: T-Rex 293 SC3 cells with 10 ng/ml doxycycline (increased androgen receptor expression), 72 hours, CellTiter-Glo 2.0; for Ratio of GI50's: GI50 of the top compound in the pair divided by GI50 of the lower compound, T-Rex 293 SC3 cells with doxycycline-induced androgen receptor
Protocol: (§1) Ability of the test compounds to inhibit proliferation of the foregoing cell types was evaluated according to the procedures set forth below.
(§2) The doxycycline-inducible androgen receptor protein expressing cell line was established using the following protocol: T-Rex 293 cells were purchased from Invitrogen (Cat #R71007) and transfected using Lipofectamine 2000 with the wild-type androgen receptor protein sequence cloned into the pcDNA4/TO vector. Transfected cells were selected using 400 μg/mL Zeocin (Invitrogen Cat #R25001). Following selection, single clones were raised and maintained in Dulbecco's Modified Eagle Medium (DMEM) supplemented with 10% w/w Tetracycline-free fetal bovine serum (FBS) and 250 μg/mL Zeocin. Clones were analyzed for expression of androgen receptor protein in the presence and absence of 10 ng/ml doxycycline (Sigma Cat #D9891), and a single doxycycline-inducible clone (hereinafter “SC3”) was selected for use in downstream assays.
(§3) The SC3 cells were seeded on poly-D-lysine coated, black clear-bottom 384-well plates at 2500/well, in 25 μL Phenol Red Free Dulbecco's Modified Eagle Medium (DMEM) supplemented with 10% w/w charcoal-dextran treated fetal bovine serum (FBS) and 1% w/w pen-strep, with or without 10 ng/ml doxycycline. Pen-Strep is a commercially available mixture of penicillin G and streptomycin, which is used in mammalian cell culture media to prevent bacterial contamination. Phenol Red Free Dulbecco's Modified Eagle Medium (DMEM) supplemented with 10% w/w charcoal-dextran treated fetal bovine serum (FBS) and 1% w/w pen-strep, with or without 10 ng/mL doxycycline is herein referred to as Treatment Medium. Following seeding of cells in the plates, the plates were spun at 300×g for 30 seconds, then equilibrated to room temperature for 30 minutes, and then deposited in a humidified tissue culture incubator maintained at 37° C. with 5% CO2.
(§4) At 24 hours after seeding of the cells, dilutions of test compound were prepared in DMSO and dissolved in Treatment Medium, to achieve a final DMSO concentration of 0.5% w/w, thereby providing the Test Compound Solution. A 25 μL aliquot of the Test Compound Solution was added to cells in the well plates. An equal volume of a solution containing DMSO and Treatment Medium was used as a negative control. Following treatment of cells with Test Compound Solution or said equal volume of a solution containing DMSO and Treatment Medium, the plates were spun at 300×g for 30 seconds, and then left in an incubator for 72 hours.
(§5) At the end of the treatment duration, cell viability was quantified with CellTiter-Glo 2.0 reagent (Promega Cat #G9243). For this purpose, plates were equilibrated to room temperature for 30 minutes, and then 25 μL of CellTiter-Glo 2.0 reagent was added to cells in the plate wells. Plates were then agitated on a shaker for two minutes at 500 rpm and subsequently incubated at room temperature for 10 minutes. Following incubation, the plates were spun at 3000×g for 30 seconds, then sealed with an optical adhesive cover, and luminescence readings were measured with an En Vision Plate Reader.
(§6) Data was normalized using zero luminescence for baseline. A four-parameter non-linear regression curve fit was applied to dose-response data in GraphPad Prism data analysis software to determine the half-maximal growth inhibitory concentration (GI50) for each test compound.

[2] = system: T-Rex 293 cell line SC3 cells lacking increased expression of androgen receptor protein; assay: Cellular growth inhibition, T-Rex 293 SC3 cells without doxycycline (CellTiter-Glo 2.0, 72 hours); type: cell-based; details: T-Rex 293 SC3 cells not exposed to doxycycline (no increased androgen receptor expression)
Protocol: as §1, §2, §3, §4, §5, §6

VCaP cells = assay: Cellular growth inhibition assay for VCaP cells (CellTiter-Glo 2.0, 72 hours); type: cell-based, human; details: for GI50: CellTiter-Glo 2.0; for Ratio of GI50's: GI50 of the top compound in the pair divided by GI50 of the lower compound
Protocol: Exemplary compounds were tested for ability to inhibit the proliferation of VCaP cells. VCap cells are a commercially available human prostate cancer cell line.
VCaP cells were purchased from American Type Cell Culture (ATCC Cat #CRL2876) and then seeded on poly-D-lysine coated, black clear-bottom 384-well plates at 5000/well in 25 μL Dulbecco's Modified Eagle Medium (DMEM) supplemented with 10% w/w Fetal bovine serum (FBS) and 1% w/w Pen-Strep. Pen-Strep is a commercially available mixture of penicillin G and streptomycin, which is used in mammalian cell culture media to prevent bacterial contamination. Dulbecco's Modified Eagle Medium (DMEM) supplemented with 10% w/w fetal bovine serum (FBS) and 1% w/w Pen-Strep is herein referred to as Treatment Medium. Following seeding of cells in the plates, the plates were spun at 300×g for 30 seconds, then equilibrated to room temperature for 30 minutes, and then deposited in a humidified tissue culture incubator maintained at 37° C. with 5% CO2.
as §4, §5, §6

| SMILES | GI50 (VCaP cells; Homo sapiens, VCaP, 72 h) [nM] | Ratio of GI50's (VCaP cells) | GI50 [1] [nM] | GI50 ([2]; 72 h) [nM] | Ratio of GI50's [1] | also measured |
| --- | --- | --- | --- | --- | --- | --- |
| COc1cc(O[C@H]2CC[C@H](NC(=O)c3ccc(N4CC5(CC(C#Cc6ccc(C7=NC(Cc8ncco8)c8nnc(C)n8-c8sc(C)c(C)c87)cc6F)C5)C4)nn3)CC2)ccc1C#N (single isomer, unassigned) [Compound I-127] | – | – | < 500 | – | – | GI50 [2]: < 500 nM; GI50 (VCaP cells; 72 hours): < 500 nM |
| COc1cc(O[C@H]2CC[C@H](NC(=O)c3ccc(N4CCC5(CCN(c6ccc(C7=NC(Cc8ncco8)c8nnc(C)n8-c8sc(C)c(C)c87)cc6F)CC5)C4)nn3)CC2)ccc1C#N (single isomer, unassigned) [Compound I-134] | – | – | < 500 | – | – | GI50 [2]: > 3000 nM; GI50 (VCaP cells; 72 hours): > 3000 nM |
| COc1cc(O[C@H]2CC[C@H](NC(=O)c3ccc(N4CCC5(CCN(c6ccc(C7=NC(Cc8ncco8)c8nnc(C)n8-c8sc(C)c(C)c87)cc6F)CC5)C4)nn3)CC2)ccc1C#N (single isomer, unassigned) [Compound I-135] | – | – | < 500 | – | – | GI50 [2]: < 500 nM; GI50 (VCaP cells; 72 hours): < 500 nM |
| Cc1sc2c(c1C)C(c1ccc(CC3CC4(CCN(c5ncc(C(=O)N[C@H]6C(C)(C)[C@H](Oc7ccc(C#N)c(Cl)c7)C6(C)C)cn5)CC4)C3)cc1)=N[C@@H](Cc1ncco1)c1nnc(C)n1-2 [C, reference compound] | – | 2.6 | – | – | 22.0 | – |
| COc1cc(O[C@H]2CC[C@H](NC(=O)c3ccc(N4CCCC5(CCN(c6ccc(C7=N[C@@H](C)c8nnc(C)n8-c8sc(C)c(C)c87)cc6)CC5)C4)nn3)CC2)ccc1C#N [Compound I-26] | – | – | < 500 | < 500 | – | – |
| COc1cc(O[C@H]2CC[C@H](NC(=O)c3ccc(N4CCC5(CCCN(c6ccc(C7=N[C@@H](C)c8nnc(C)n8-c8sc(C)c(C)c87)cc6)C5)C4)nn3)CC2)ccc1C#N (stereo partly shown) [Compound I-98] | – | – | – | < 500 | – | – |
| COc1cc(O[C@H]2CC[C@H](NC(=O)c3ccc(N4CCC5(CCN(c6ccc(C7=N[C@@H](C)c8nnc(C)n8-c8sc(C)c(C)c87)cc6)CC56CCC6)C4)nn3)CC2)ccc1C#N (stereo partly shown) [Compound I-132] | – | – | – | < 500 | – | – |
| Cc1sc2c(c1C)C(c1ccc(C3CCC4(CC3)CCN(c3ncc(C(=O)N[C@H]5C(C)(C)[C@H](Oc6ccc(C#N)c(Cl)c6)C5(C)C)cn3)C4)cc1)=N[C@@H](Cc1ncco1)c1nnc(C)n1-2 [D, reference compound] | – | 6.5 | – | – | 3.8 | – |
| Cc1sc2c(c1C)C(c1ccc(OC3CC4(CCN(c5ccc(C(=O)N[C@H]6CC[C@H](Oc7ccc(C#N)c(Cl)c7)CC6)nn5)CC4)C3)cc1)=N[C@@H](Cc1ncco1)c1nnc(C)n1-2 [E, reference compound] | – | 4.4 | – | – | 4.7 | – |
| Cc1sc2c(c1C)C(c1ccc(CC3CC4(CCN(c5ccc(C(=O)N[C@H]6CC[C@H](Oc7ccc(C#N)c(Cl)c7)CC6)nn5)CC4)C3)cc1)=N[C@@H](Cc1ncco1)c1nnc(C)n1-2 [F, reference compound] | – | 1.9 | – | – | 3.8 | – |
| Cc1sc2c(c1C)C(c1ccc(C#CC3CC4(C3)CN(c3ccc(C(=O)N[C@H]5CC[C@H](Oc6ccc(C#N)c(Cl)c6)CC5)nn3)C4)cc1)=N[C@@H](Cc1ncco1)c1nnc(C)n1-2 [G, reference compound] | – | 1.5 | – | – | 1.7 | – |
| Cc1sc2c(c1C)C(c1ccc(N3CCC4(CC3)CCN(c3ccc(C(=O)N[C@H]5CC[C@H](Oc6ccc(C#N)c(Cl)c6)CC5)nn3)C4)cc1)=N[C@@H](C)c1nnc(C)n1-2 [H, reference compound] | – | 1.8 | – | – | 8.4 | – |
| Cc1sc2c(c1C)C(c1ccc(C3CCC4(CC3)CCN(c3ccc(C(=O)N[C@H]5CC[C@H](Oc6ccc(C#N)c(Cl)c6)CC5)nn3)C4)cc1)=N[C@@H](Cc1ncco1)c1nnc(C)n1-2 (stereo partly shown) [J, reference compound] | – | 3.0 | – | – | 3.2 | – |
| Cc1sc2c(c1C)C(c1ccc(C#CC3CC4(C3)CN(c3ccc(C(=O)N[C@H]5CC[C@H](Oc6ccc(C#N)c(Cl)c6)CC5)nn3)C4)cc1F)=NC(Cc1ncco1)c1nnc(C)n1-2 (stereo partly shown) [K, reference compound] | – | 1.5 | – | – | 2.0 | – |

The next lines start with results.

| GI50 (VCaP cells; Homo sapiens, VCaP, 72 h) [nM] | Ratio of GI50's (VCaP cells) | SMILES | GI50 [1] [nM] | GI50 ([2]; 72 h) [nM] | Ratio of GI50's [1] | also measured |
| --- | --- | --- | --- | --- | --- | --- |
| < 500 | – | COc1cc(O[C@H]2CC[C@H](NC(=O)c3ccc(N4CCC5(CCC(Oc6ccc(C7=N[C@@H](C)c8nnc(C)n8-c8sc(C)c(C)c87)cc6)C5)C4)nn3)CC2)ccc1C#N (single isomer, unassigned) [Compound I-49] | < 500 | < 500 | – | – |
| < 500 | – | COc1cc(O[C@H]2CC[C@H](NC(=O)c3ccc(N4CCC5(CCC(c6ccc(C7=N[C@@H](C)c8nnc(C)n8-c8sc(C)c(C)c87)cc6F)CC5)C4)nn3)CC2)ccc1C#N (single isomer, unassigned) [Compound I-56] | < 500 | < 500 | – | – |
| < 500 | – | COc1cc(O[C@H]2CC[C@H](NC(=O)c3ccc(N4CCC5(CCC(c6ccc(C7=N[C@@H](C)c8nnc(C)n8-c8sc(C)c(C)c87)c(F)c6)CC5)C4)nn3)CC2)ccc1C#N (single isomer, unassigned) [Compound I-58] | < 500 | < 500 | – | – |
| 500 to 1500 | – | COc1cc(O[C@H]2CC[C@H](NC(=O)c3ccc(N4CCC5(CCC(c6ccc(C7=N[C@@H](C)c8nnc(C)n8-c8sc(C)c(C)c87)c(Cl)c6)CC5)C4)nn3)CC2)ccc1C#N (single isomer, unassigned) [Compound I-64] | < 500 | < 500 | – | – |
| < 500 | – | COc1cc(O[C@H]2CC[C@H](NC(=O)c3ccc(N4CCC5(CCC(c6ccc(C7=N[C@@H](C)c8nnc(C)n8-c8sc(C)c(C)c87)cc6OC)CC5)C4)nn3)CC2)ccc1C#N (single isomer, unassigned) [Compound I-66] | < 500 | < 500 | – | – |
| < 500 | – | COc1cc(O[C@H]2CC[C@H](NC(=O)c3ccc(N4CC5(CC(C#Cc6ccc(C7=NC(Cc8ncco8)c8nnc(C)n8-c8sc(C)c(C)c87)cc6F)C5)C4)nn3)CC2)ccc1C#N (single isomer, unassigned) [Compound I-123] | < 500 | – | – | GI50 [2]: > 3000 nM |
| < 500 | – | COc1cc(O[C@H]2CC[C@H](NC(=O)c3ccc(N4CCCC5(CCN(c6ccc(C7=N[C@@H](C)c8nnc(C)n8-c8sc(C)c(C)c87)cc6)CC5)C4)nn3)CC2)ccc1C#N [Compound I-18] | – | – | – | – |
| < 500 | – | COc1cc(O[C@H]2CC[C@H](NC(=O)c3ccc(N4CCC5(CCCN(c6ccc(C7=N[C@@H](C)c8nnc(C)n8-c8sc(C)c(C)c87)cc6)C5)C4)nn3)CC2)ccc1C#N (stereo partly drawn) [Compound I-82, N-((1r,4r)-4-(4-cyano-3-methoxyphenoxy)cyclohexyl)-6-(7-(4-((S)-2,3,6,9-tetramethyl-6H-thieno[3,2-f][1,2,4]triazolo[4,3-a][1,4]diazepin-4-yl)phenyl)-2,7-diazaspiro[4.5]decan-2-yl) pyridazine-3-carboxamide] | < 500 | – | – | – |
| < 500 | – | COc1cc(O[C@H]2CC[C@H](NC(=O)c3ccc(N4CCC5(CCN(c6ccc(C7=N[C@@H](C)c8nnc(C)n8-c8sc(C)c(C)c87)cc6)CC56CCC6)C4)nn3)CC2)ccc1C#N (stereo partly shown) [Compound I-130] | < 500 | – | – | – |
